Values of other authors, collected in US11339174B2, “γ-spiroketal-γ-lactones and pharmaceutical composition containing same and process for preparation thereof” (Council of Scientific and Industrial Research, priority 2017, dated 2022).
Values after ≈ are worked out from the molar mass of the structure shown.

Legend:
HL-60 = conditions: anticancer

Compound: C[C@H]1O[C@@H]2C[C@]3(C=CC(=O)O3)O[C@@H]2[C@H]1O [pyrenolide D]
- IC50 against HL-60 (HL-60): 4 µg/mL (≈ 18.9 µM)

Compound: massarinoline A
- activity against Bacillus subtilis (Bacillus subtilis): active
- activity against Staphylococcus aureus (Staphylococcus aureus): active
